# Earlier results as cited in patent publication US10722518B2, “Oxazine derivative for use in the treatment or prevention of cerebral amyloid angiopathy” (Novartis AG, priority 2016, dated 2020).
# Test system: APP23 mice
# Conditions: aged APP23 mice treated for three months; cited from earlier work
smiles,measurement,value
Cc1cc(C#N)cnc1C(=O)Nc1ccc(F)c([C@]2(C)CO[C@@](C)(C(F)(F)F)C(N)=N2)c1 [NB360],effect on CAA-related microhaemorrhage (volumetric MRI),no effect
